Reference: ChEMBL document CHEMBL1201862, “PubChem BioAssay data set” (2004)
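Results reflect a 48-hour exposure of cells in 96-well plates to compound at five concentrations. GI50 = concentration required for 50% inhibition of growth.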 The source made the active and inactive calls. Cut-off read from the data, not from the text of the source: active = GI50 up to about 1.1 µM and inactive = higher.

Key:
Test in all cases: inhibition of tumour cell growth, NCI panel, 48 h
[1] = tested on: UACC-62
[2] = tested on: OVCAR-4
[3] = tested on: SK-MEL-2
[4] = tested on: A498
[5] = tested on: SK-OV-3
[6] = tested on: HCC 2998
[7] = tested on: M14
[8] = tested on: OVCAR-5
[9] = tested on: SR
[10] = tested on: SF-295
[11] = tested on: HOP-92
[12] = tested on: DLD-1
[13] = tested on: DMS-114
[14] = tested on: U-251
[15] = tested on: NCI-H522
[16] = tested on: IGROV-1
[17] = tested on: Malme-3M
[18] = tested on: HL-60
[19] = tested on: HCT-116
[20] = tested on: NCI-H460
[21] = tested on: RXF 393
[22] = tested on: XF498
[23] = tested on: NCI-H23
[24] = tested on: CCRF-CEM
[25] = tested on: LOX IMVI
[26] = tested on: ACHN
[27] = tested on: SK-MEL-5
[28] = tested on: COLO 205
[29] = tested on: NCI-H226
[30] = tested on: K562
[31] = tested on: SK-MEL-28
[32] = tested on: HOP-62
[33] = tested on: LXFL 529
[34] = tested on: SF-539
[35] = tested on: SF-268
[36] = tested on: KM12
[37] = tested on: SNB-19
[38] = tested on: SN12C
[39] = tested on: 786-0
[40] = tested on: RXF 631
[41] = tested on: CAKI-1
[42] = tested on: EKVX
[43] = tested on: HCT-15
[44] = tested on: SNB-75
[45] = tested on: A549
[46] = tested on: RPMI-8226
[47] = tested on: UO-31
[48] = tested on: OVCAR-8
[49] = tested on: OVCAR-3
[50] = tested on: SNB-78
[51] = tested on: MOLT-4
[52] = tested on: UACC-257
[53] = tested on: HT-29
[54] = tested on: DMS-273
[55] = tested on: KM-20L2
[56] = tested on: HOP-18
[57] = tested on: TK-10
[58] = tested on: M19-MEL
[59] = tested on: SW-620

COC(=O)C(=O)C(C(=O)C=C(C)C)C(=O)C(=O)Nc1cc(C(F)(F)F)ccc1Cl (centres undefined)
GI50 [1]: > 100 µM (inactive) | GI50 [2]: > 100 µM (inactive) | GI50 [3]: > 100 µM (inactive) | GI50 [4]: > 100 µM (inactive) | GI50 [5]: > 100 µM (inactive) | GI50 [6]: > 100 µM (inactive) | GI50 [7]: > 100 µM (inactive) | GI50 [8]: > 100 µM (inactive) | GI50 [9]: 17.7 µM (inactive) | GI50 [10]: > 100 µM (inactive) | GI50 [11]: > 100 µM (inactive) | GI50 [12]: > 100 µM (inactive) | GI50 [13]: > 100 µM (inactive) | GI50 [14]: > 100 µM (inactive) | GI50 [15]: 57.5 µM (inactive) | GI50 [16]: > 100 µM (inactive) | GI50 [17]: > 100 µM (inactive) | GI50 [18]: > 100 µM (inactive) | GI50 [19]: > 100 µM (inactive) | GI50 [20]: > 100 µM (inactive) | GI50 [21]: > 100 µM (inactive) | GI50 [22]: > 100 µM (inactive) | GI50 [23]: > 100 µM (inactive) | GI50 [24]: 21.3 µM (inactive) | GI50 [25]: 46.9 µM (inactive) | GI50 [26]: > 100 µM (inactive) | GI50 [27]: > 100 µM (inactive) | GI50 [28]: 52.2 µM (inactive) | GI50 [29]: > 100 µM (inactive) | GI50 [30]: 42.9 µM (inactive) | GI50 [31]: > 100 µM (inactive) | GI50 [32]: > 100 µM (inactive) | GI50 [33]: > 100 µM (inactive) | GI50 [34]: > 100 µM (inactive) | GI50 [35]: > 100 µM (inactive) | GI50 [36]: > 100 µM (inactive) | GI50 [37]: > 100 µM (inactive) | GI50 [38]: > 100 µM (inactive) | GI50 [39]: > 100 µM (inactive) | GI50 [40]: > 100 µM (inactive) | GI50 [41]: > 100 µM (inactive) | GI50 [42]: > 100 µM (inactive) | GI50 [43]: > 100 µM | GI50 [44]: > 100 µM (inactive) | GI50 [45]: > 100 µM (inactive) | GI50 [46]: 24.4 µM (inactive) | GI50 [47]: > 100 µM (inactive) | GI50 [48]: > 100 µM (inactive) | GI50 [49]: > 100 µM (inactive) | GI50 [50]: > 100 µM (inactive) | GI50 [51]: > 100 µM (inactive) | GI50 [52]: 70.3 µM (inactive) | GI50 [53]: > 100 µM (inactive) | GI50 [54]: 28.7 µM (inactive) | GI50 [55]: > 100 µM (inactive) | GI50 [56]: > 100 µM (inactive) | GI50 [57]: > 100 µM (inactive)

CCOc1ccc(/N=C\c2ccc3cc(C)ccc3n2)cc1
GI50 [1]: 37.9 µM (inactive) | GI50 [2]: 75.3 µM (inactive) | GI50 [3]: 45.1 µM (inactive) | GI50 [4]: 72.3 µM (inactive) | GI50 [5]: > 100 µM (inactive) | GI50 [6]: 33.2 µM (inactive) | GI50 [7]: 49.1 µM (inactive) | GI50 [8]: > 100 µM (inactive) | GI50 [10]: 68.5 µM (inactive) | GI50 [11]: 66.8 µM (inactive) | GI50 [12]: 48.8 µM (inactive) | GI50 [13]: 31.1 µM (inactive) | GI50 [14]: > 100 µM (inactive) | GI50 [15]: > 100 µM (inactive) | GI50 [16]: 77.6 µM (inactive) | GI50 [17]: > 100 µM (inactive) | GI50 [18]: 19.5 µM (inactive) | GI50 [20]: 69.3 µM (inactive) | GI50 [58]: 52.4 µM (inactive) | GI50 [21]: 91 µM (inactive) | GI50 [22]: > 100 µM (inactive) | GI50 [23]: > 100 µM (inactive) | GI50 [24]: 22.5 µM (inactive) | GI50 [25]: 30.6 µM (inactive) | GI50 [26]: 35.8 µM (inactive) | GI50 [27]: 57.8 µM (inactive) | GI50 [28]: > 100 µM (inactive) | GI50 [29]: > 100 µM (inactive) | GI50 [30]: 25.4 µM (inactive) | GI50 [31]: > 100 µM (inactive) | GI50 [32]: > 100 µM (inactive) | GI50 [33]: 30.5 µM (inactive) | GI50 [34]: 40.3 µM (inactive) | GI50 [35]: 69 µM (inactive) | GI50 [36]: 37.1 µM (inactive) | GI50 [37]: 49 µM (inactive) | GI50 [38]: > 100 µM (inactive) | GI50 [39]: 51.6 µM (inactive) | GI50 [40]: > 100 µM (inactive) | GI50 [41]: 36.9 µM (inactive) | GI50 [42]: 55.6 µM (inactive) | GI50 [43]: 41.8 µM | GI50 [44]: 40.7 µM (inactive) | GI50 [45]: > 100 µM (inactive) | GI50 [46]: 22.8 µM (inactive) | GI50 [47]: 31 µM (inactive) | GI50 [48]: 50.2 µM (inactive) | GI50 [49]: 33.1 µM (inactive) | GI50 [50]: > 100 µM (inactive) | GI50 [51]: 27.3 µM (inactive) | GI50 [52]: 76 µM (inactive) | GI50 [53]: 34.6 µM (inactive) | GI50 [54]: 43.2 µM (inactive) | GI50 [55]: 34.7 µM (inactive) | GI50 [56]: > 100 µM (inactive) | GI50 [57]: 79.3 µM (inactive) | GI50 [59]: 58.9 µM (inactive)
